Results taken from patent US9695154B2, “Heteroaryl inhibitors of sumo activating enzyme” (MILLENNIUM PHARMACEUTICALS, INC., priority 2013, dated 2017).
Where a name gives a salt, the structure may show the parent alone.

Target: T1, recombinant human SAE enzyme (Homo sapiens, UniProt Q9UBT2)
T1 sequence (Q9UBT2 1-640): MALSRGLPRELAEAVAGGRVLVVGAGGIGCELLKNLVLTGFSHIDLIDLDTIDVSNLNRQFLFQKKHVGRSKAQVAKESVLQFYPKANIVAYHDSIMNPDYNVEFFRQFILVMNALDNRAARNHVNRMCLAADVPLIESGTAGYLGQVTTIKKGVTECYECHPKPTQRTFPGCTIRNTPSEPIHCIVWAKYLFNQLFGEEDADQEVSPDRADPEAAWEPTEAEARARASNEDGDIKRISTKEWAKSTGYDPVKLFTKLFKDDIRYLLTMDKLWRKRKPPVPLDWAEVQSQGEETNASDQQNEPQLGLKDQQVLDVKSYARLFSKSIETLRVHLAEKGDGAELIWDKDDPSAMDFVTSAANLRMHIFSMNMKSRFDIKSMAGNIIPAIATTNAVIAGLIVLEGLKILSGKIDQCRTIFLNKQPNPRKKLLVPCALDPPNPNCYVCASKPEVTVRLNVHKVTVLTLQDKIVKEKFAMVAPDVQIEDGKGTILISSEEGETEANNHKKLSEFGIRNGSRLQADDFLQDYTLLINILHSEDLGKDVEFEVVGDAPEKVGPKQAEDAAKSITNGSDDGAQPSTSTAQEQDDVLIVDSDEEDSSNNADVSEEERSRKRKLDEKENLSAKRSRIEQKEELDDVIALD
T1 sequence (Q9UBE0 1-346 partner): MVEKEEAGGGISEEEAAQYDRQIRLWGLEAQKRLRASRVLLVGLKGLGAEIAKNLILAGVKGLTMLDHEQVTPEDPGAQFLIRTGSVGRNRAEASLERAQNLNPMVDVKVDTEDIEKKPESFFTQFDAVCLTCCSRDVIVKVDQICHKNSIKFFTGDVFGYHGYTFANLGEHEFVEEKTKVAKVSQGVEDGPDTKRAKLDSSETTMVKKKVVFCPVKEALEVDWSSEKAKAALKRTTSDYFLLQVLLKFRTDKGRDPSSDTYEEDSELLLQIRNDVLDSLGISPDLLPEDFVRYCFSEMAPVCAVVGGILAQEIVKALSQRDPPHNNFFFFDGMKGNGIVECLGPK
Test: SAE HTRF Enzyme Assay
Type: biochemical
Procedure, shortened: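 Measured as FRET after a 2 h antibody step: SAE (0.11 nM) thioester transfer of Sumo-Flag to Ubc9-GST, 0.5 μM ATP, 24° C for 105 min, quenched with 20 mM EDTA. Output is IC50 or percent inhibition at a single concentration.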

N[C@@H]1[C@H](O)[C@@H](COS(N)(=O)=O)C[C@H]1Nc1ncncc1C(=O)c1ccn(Cc2cccc(Br)c2)n1 [Compound I-370, {(1R,2R,3S,4R)-3-amino-4-[(5-{[1-(3-bromobenzyl)-1H-pyrazol-3-yl]carbonyl}pyrimidin-4-yl)amino]-2-hydroxycyclopentyl}methyl sulfamate.2[HCl]]
IC50 (class symbols A-C): 10 to 100 nM
inhibition at 0.111 µM (compound concentration 0.111 μM, read-out: Percent Inhibition): 78%
